In ChEMBL document CHEMBL5055626 (J Med Chem, 2021):
Where a SMILES comes first, the peptide text is derived from it. Bridges are numbered along the chain shown (N, C = ends).

Key:
[1] = biological target: T1, Neuronal acetylcholine receptor subunit alpha-7 (Rattus norvegicus, UniProt Q05941); assay: Antagonist activity at rat alpha7 nAChR expressed in xenopus oocytes assessed as inhibition of Ach- induced response at -100 mV holding potential incubated for 200 secs followed by acetyl choline stimulation by two- electrode voltage-clamp based electrophysiological method; type: cell-based, Oocyte
[2] = Antagonist activity at rat alpha6/ alpha3beta2beta3 nAChR expressed in xenopus oocytes assessed as inhibition of Ach- induced response at -70 mV holding potential preincubated for 5 mins followed by Ach stimulation by voltage-clamp based electrophysiological method; type: cell-based; details: Oocyte
[3] = biological target: Neuronal acetylcholine receptor; alpha3/beta2 (Rattus norvegicus, UniProt P04757+P12390); assay: Antagonist activity at rat alpha3beta2 nAChR expressed in xenopus oocytes assessed as inhibition of Ach- induced response at -70 mV holding potential preincubated for 5 mins followed by Ach stimulation by voltage-clamp based electrophysiological method; type: cell-based, Oocyte
[4] = biological target: T1, Neuronal acetylcholine receptor subunit alpha-7; assay: Antagonist activity at rat alpha7 nAChR expressed in xenopus oocytes assessed as inhibition of Ach- induced response at -70 mV holding potential preincubated for 5 mins followed by Ach stimulation by voltage-clamp based electrophysiological method; type: cell-based, Oocyte
[5] = biological target: T2, Neuronal acetylcholine receptor; alpha3/beta4 (Rattus norvegicus, UniProt P04757+P12392); assay: Antagonist activity at rat alpha3beta4 nAChR expressed in xenopus oocytes assessed as inhibition of Ach- induced response at -80 mV holding potential incubated for 200 secs followed by Ach stimulation by voltage-clamp based electrophysiological method; type: cell-based, Oocyte
[6] = biological target: T1, Neuronal acetylcholine receptor subunit alpha-7; assay: Antagonist activity at rat alpha7 nAChR expressed in xenopus oocytes assessed as inhibition of Ach- induced response at -80 mV holding potential incubated for 200 secs followed by Ach stimulation by voltage-clamp based electrophysiological method; type: cell-based, Oocyte
[7] = Antagonist activity at rat alpha6/ alpha3beta2beta3 nAChR
[8] = biological target: T3, Nicotinic acetylcholine receptor alpha6/alpha3/beta4 (Homo sapiens, UniProt P30926+P32297+Q15825); assay: Antagonist activity at rat alpha6/alpha3beta4 nAChR; type: protein-complex assay; details: target entry is the homologue from another species
[9] = biological target: T2, Neuronal acetylcholine receptor; alpha3/beta4; assay: Antagonist activity at rat alpha3beta4 nAChR; type: protein-complex assay
[10] = biological target: T3, Nicotinic acetylcholine receptor alpha6/alpha3/beta4; assay: Antagonist activity at rat alpha6/alpha3beta4 nAChR expressed in xenopus oocytes assessed as inhibition of Ach- induced response at -70 mV holding potential preincubated for 5 mins followed by Ach stimulation by voltage-clamp based electrophysiological method; type: cell-based, Oocyte
[11] = biological target: T2, Neuronal acetylcholine receptor; alpha3/beta4; assay: Antagonist activity at rat alpha3beta4 nAChR expressed in xenopus oocytes assessed as inhibition of Ach- induced response at -70 mV holding potential preincubated for 5 mins followed by Ach stimulation by voltage-clamp based electrophysiological method; type: cell-based, Oocyte

T1 sequence (Q05941 whole entry): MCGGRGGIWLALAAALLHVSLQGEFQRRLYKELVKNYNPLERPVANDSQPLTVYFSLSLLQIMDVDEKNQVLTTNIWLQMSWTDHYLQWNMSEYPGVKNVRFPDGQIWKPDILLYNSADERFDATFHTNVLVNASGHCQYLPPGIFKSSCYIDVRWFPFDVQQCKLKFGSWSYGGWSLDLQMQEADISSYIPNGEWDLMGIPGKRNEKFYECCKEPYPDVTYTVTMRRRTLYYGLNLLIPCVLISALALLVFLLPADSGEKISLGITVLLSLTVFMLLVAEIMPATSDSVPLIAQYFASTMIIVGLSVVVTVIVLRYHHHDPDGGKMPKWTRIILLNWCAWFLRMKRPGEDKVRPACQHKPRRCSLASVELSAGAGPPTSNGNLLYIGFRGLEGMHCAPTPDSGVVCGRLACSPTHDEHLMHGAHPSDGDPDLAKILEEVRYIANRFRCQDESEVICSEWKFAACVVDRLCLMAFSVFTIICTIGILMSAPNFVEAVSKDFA
T2 sequence (P04757 whole entry): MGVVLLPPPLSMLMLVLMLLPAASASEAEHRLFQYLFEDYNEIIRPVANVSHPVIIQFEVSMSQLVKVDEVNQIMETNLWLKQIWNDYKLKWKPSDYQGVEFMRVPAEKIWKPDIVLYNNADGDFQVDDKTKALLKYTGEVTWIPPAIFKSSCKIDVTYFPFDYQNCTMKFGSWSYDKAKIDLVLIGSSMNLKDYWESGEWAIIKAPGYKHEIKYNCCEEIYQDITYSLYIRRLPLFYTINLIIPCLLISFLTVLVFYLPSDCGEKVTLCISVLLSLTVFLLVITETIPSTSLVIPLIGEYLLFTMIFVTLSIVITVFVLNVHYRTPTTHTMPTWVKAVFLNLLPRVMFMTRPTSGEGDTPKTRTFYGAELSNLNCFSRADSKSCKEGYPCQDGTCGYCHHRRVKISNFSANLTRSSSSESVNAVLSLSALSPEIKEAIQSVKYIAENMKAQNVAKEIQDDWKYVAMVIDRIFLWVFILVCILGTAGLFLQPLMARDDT
T2 sequence (P12392 whole entry): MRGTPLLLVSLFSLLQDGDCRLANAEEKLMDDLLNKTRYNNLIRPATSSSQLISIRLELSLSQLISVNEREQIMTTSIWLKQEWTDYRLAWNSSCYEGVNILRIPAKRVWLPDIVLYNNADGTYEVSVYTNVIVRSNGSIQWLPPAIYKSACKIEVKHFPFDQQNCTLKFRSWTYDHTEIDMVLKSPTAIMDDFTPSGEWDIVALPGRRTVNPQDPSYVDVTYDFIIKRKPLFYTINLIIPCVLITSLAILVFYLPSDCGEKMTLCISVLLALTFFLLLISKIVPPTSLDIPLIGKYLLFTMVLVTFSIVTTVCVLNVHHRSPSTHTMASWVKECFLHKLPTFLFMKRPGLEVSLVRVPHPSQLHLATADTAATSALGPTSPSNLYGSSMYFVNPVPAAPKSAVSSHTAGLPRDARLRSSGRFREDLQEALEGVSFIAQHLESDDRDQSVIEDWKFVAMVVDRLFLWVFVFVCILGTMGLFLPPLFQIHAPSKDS
T3 sequence (P30926 whole entry): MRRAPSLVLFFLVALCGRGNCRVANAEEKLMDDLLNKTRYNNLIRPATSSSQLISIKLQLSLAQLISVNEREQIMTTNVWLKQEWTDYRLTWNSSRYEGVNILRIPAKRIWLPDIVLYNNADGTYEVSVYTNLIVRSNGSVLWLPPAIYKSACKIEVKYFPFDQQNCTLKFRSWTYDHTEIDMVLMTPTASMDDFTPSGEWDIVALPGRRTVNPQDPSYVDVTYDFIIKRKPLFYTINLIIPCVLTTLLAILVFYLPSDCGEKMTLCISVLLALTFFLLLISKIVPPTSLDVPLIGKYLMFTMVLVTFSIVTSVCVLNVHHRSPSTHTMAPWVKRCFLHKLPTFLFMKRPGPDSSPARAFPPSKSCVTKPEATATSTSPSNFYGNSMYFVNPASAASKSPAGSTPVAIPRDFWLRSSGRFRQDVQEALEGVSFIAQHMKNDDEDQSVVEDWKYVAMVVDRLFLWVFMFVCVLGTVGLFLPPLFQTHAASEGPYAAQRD
T3 sequence (P32297 whole entry): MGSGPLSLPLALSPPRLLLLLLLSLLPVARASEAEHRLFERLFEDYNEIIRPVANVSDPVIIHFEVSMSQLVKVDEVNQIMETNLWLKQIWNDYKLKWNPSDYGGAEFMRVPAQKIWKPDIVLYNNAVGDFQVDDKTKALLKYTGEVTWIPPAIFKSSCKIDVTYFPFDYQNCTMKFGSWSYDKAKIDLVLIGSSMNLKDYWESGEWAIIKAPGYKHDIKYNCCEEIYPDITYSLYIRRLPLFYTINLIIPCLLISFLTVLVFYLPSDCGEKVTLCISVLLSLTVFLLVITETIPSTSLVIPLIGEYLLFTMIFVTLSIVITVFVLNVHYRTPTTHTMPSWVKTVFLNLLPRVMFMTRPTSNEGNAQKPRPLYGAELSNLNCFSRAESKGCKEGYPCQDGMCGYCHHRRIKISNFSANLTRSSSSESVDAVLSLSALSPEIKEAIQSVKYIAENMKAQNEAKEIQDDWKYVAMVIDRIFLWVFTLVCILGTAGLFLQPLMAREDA
T3 sequence (Q15825 whole entry): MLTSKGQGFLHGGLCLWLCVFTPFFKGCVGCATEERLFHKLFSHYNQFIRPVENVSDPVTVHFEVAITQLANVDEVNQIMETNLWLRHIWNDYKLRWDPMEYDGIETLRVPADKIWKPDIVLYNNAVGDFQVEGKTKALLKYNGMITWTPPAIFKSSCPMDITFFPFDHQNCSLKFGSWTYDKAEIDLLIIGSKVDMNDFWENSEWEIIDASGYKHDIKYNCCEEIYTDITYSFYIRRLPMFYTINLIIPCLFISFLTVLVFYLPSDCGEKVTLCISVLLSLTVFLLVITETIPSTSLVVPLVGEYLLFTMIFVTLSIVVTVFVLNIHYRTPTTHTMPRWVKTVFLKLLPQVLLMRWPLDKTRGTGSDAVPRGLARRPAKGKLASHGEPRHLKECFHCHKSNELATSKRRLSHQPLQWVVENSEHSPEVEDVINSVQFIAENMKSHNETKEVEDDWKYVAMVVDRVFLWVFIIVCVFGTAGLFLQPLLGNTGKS
Chain of Neuronal acetylcholine receptor; alpha3/beta2 (P04757 whole entry): as the sequence (P04757 whole entry) above
Chain of Neuronal acetylcholine receptor; alpha3/beta2 (P12390 whole entry): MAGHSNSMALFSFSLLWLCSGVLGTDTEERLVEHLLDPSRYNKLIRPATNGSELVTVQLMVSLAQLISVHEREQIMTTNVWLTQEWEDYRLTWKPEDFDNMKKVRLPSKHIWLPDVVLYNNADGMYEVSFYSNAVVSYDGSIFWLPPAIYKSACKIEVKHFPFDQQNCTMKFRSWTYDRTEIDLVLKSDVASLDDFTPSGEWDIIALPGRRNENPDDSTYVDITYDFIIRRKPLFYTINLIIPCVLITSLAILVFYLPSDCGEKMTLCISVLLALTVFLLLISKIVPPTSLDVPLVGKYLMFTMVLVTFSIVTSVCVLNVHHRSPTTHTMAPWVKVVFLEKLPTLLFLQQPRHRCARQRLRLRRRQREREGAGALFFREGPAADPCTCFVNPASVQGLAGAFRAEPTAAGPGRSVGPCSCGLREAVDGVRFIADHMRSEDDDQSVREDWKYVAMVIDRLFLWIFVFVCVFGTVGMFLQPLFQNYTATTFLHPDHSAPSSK

Molecule `C[C@@H]1NC(=O)[C@@H]2CSSC[C@H](NC(=O)CN)C(=O)N[C@@H](CSSC[C@@H](C(N)=O)NC(=O)[C@H](CCCNC(=N)N)NC(=O)[C@H](Cc3c[nH]c4ccccc34)NC1=O)C(=O)N[C@@H](CO)C(=O)N[C@@H](CC(=O)O)C(=O)N1CCC[C@H]1C(=O)N[C@@H](CCCNC(=N)N)C(=O)N2` has an IC50 [1] of 69 nM.

With `CC(C)[C@@H]1NC(=O)[C@H](Cc2cnc[nH]2)NC(=O)[C@@H]2CCCN2C(=O)[C@H](CC(N)=O)NC(=O)[C@H](CC(N)=O)NC(=O)[C@H](C(C)C)NC(=O)[C@H](CCCNC(=N)N)NC(=O)[C@H]2CSSC[C@H](NC(=O)[C@H](CCC(=O)O)NC(=O)[C@@H](N)CC(=O)O)C(=O)N[C@@H](CSSC[C@@H](C(=O)N[C@@H](CCCNC(=N)N)C(=O)N[C@@H](CCCNC(=N)N)C(=O)N[C@@H](CCCNC(=N)N)C(=O)O)NC1=O)C(=O)N[C@@H](CO)C(=O)N[C@@H](CC(N)=O)C(=O)N1CCC[C@H]1C(=O)N[C@@H](C)C(=O)N2` the IC50 [2] was 60 nM, the IC50 [3] was 6 nM and the IC50 [4] was 2 nM.

With `C[C@H](N)C(=O)N[C@H]1CSSC[C@@H]2NC(=O)[C@H](CCCNC(=N)N)NC(=O)[C@H](CCCNC(=N)N)NC(=O)[C@H](CC(=O)O)NC(=O)[C@H](CO)NC(=O)[C@H](CSSC[C@H](C(N)=O)NC(=O)[C@H](CCCNC(=N)N)NC(=O)[C@H](Cc3c[nH]c4ccccc34)NC(=O)[C@H](CCCNC(=N)N)NC2=O)NC1=O` the IC50 [4] was 440 nM.

For `CC(C)[C@@H]1NC(=O)[C@H](Cc2cnc[nH]2)NC(=O)[C@@H]2CCCN2C(=O)[C@H](CC(N)=O)NC(=O)[C@H](CC(N)=O)NC(=O)[C@H](C(C)C)NC(=O)[C@H](CCCNC(=N)N)NC(=O)[C@@H]2CSSC[C@H](NC(=O)[C@H](CCC(=O)O)NC(=O)[C@@H](N)CC(=O)O)C(=O)N[C@@H](CSSC[C@@H](C(=O)N[C@@H](CCCNC(=N)N)C(=O)N[C@@H](CCCNC(=N)N)C(=O)N[C@@H](CCCNC(=N)N)C(=O)O)NC1=O)C(=O)N[C@@H](CO)C(=O)N[C@@H](CC(N)=O)C(=O)N1CCC[C@H]1C(=O)N[C@@H](C)C(=O)N2`, the IC50 [5] was 3 nM and the IC50 [6] was 5 nM.

With `CC(C)C[C@@H]1NC(=O)[C@H](C(C)C)NC(=O)[C@H](C)NC(=O)[C@@H]2CSSC[C@H](NC(=O)CN)C(=O)N[C@@H](CSSC[C@H](C(=O)NCC(=O)O)NC(=O)[C@H](Cc3ccc(O)cc3)NC1=O)C(=O)N[C@@H](CO)C(=O)N[C@@H]([C@@H](C)O)C(=O)N1CC(O)C[C@H]1C(=O)N1CCC[C@H]1C(=O)N2` (stereo partly specified) the IC50 [7] was 1300 nM and the IC50 [8] was 12 nM.

Work on `CC(C)C[C@@H]1NC(=O)[C@H](C(C)C)NC(=O)[C@H](C)NC(=O)[C@@H]2CSSC[C@H](NC(=O)CN)C(=O)N[C@@H](CSSC[C@H](C(=O)NCC(=O)O)NC(=O)[C@H](Cc3ccc(O)cc3)NC1=O)C(=O)N[C@@H](CO)C(=O)N[C@@H]([C@@H](C)O)C(=O)N1CCC[C@H]1C(=O)N1CCC[C@H]1C(=O)N2` yielded an IC50 [9] of 37.7 nM, an IC50 [2] of 0.258 nM and an IC50 [10] of 1.5 nM. It also gave an IC50 [3] of 5.7 nM.

With `CC(C)C[C@@H]1NC(=O)[C@H](C(C)C)NC(=O)[C@H](C)NC(=O)[C@@H]2CSSC[C@H](NC(=O)CN)C(=O)N[C@@H](CSSC[C@H](C(=O)NCC(=O)O)NC(=O)[C@H](Cc3ccc(O)cc3)NC1=O)C(=O)N[C@@H](CO)C(=O)N[C@@H](C)C(=O)N1CC(O)C[C@H]1C(=O)N1CCC[C@H]1C(=O)N2` (stereo partly specified) the IC50 [10] was 58.1 nM and the IC50 [11] was 1200 nM.

For `CC[C@H](C)[C@@H]1NC(=O)[C@H](Cc2cnc[nH]2)NC(=O)[C@@H]2CCCN2C(=O)[C@H](CC(N)=O)NC(=O)[C@H](CC(N)=O)NC(=O)[C@H](C(C)C)NC(=O)[C@H](CC(N)=O)NC(=O)[C@@H]2CSSC[C@H](NC(=O)CN)C(=O)N[C@@H](CSSC[C@@H](C(=O)NCC(N)=O)NC1=O)C(=O)N[C@@H](CO)C(=O)N[C@@H](Cc1cnc[nH]1)C(=O)N1CCC[C@H]1C(=O)N[C@@H](C)C(=O)N2` (H-GCCSHPACNVNNPHICG-NH2; disulfide 2-8, 3-16), the IC50 [4] was 27 nM.
